EPA's ToxValDB 9.5 (doi:10.2903/j.efsa.2013.3213)

System: Rattus norvegicus
Conditions: chronic

## CCOP(=O)=O.CCOP(=O)=O.CCOP(=O)=O.[Al+3] [Fosetyl aluminum]
  NOAEL: 232 mg/kg-day
